Values joined by “and” are separate entries in the source; they are usually repeats but may differ in a detail not shown here. Identical values can stand only once.
Experiments:
[1] = tested on: cells derived from late infantile Batten disease (LINCL or CLN2 deficient); assay: JC-1 mitochondrial membrane potential assay of etoposide-induced apoptosis, LINCL cells; format: cell-based, human; conditions: for percentage of cells showing J-aggregates: two patient cell lines, JC-1 stain
Experimental: (§1) Batten disease-derived cell lines were tested for their susceptibility to apoptosis induced by etoposide and whether flupirtine had any protective effect against apoptosis. Cells derived from infantile Batten disease (INCL or CLN1 deficient), cells derived from late infantile Batten disease (LINCL or CLN2 deficient), and cells derived from juvenile Batten disease (JNCL or CLN3 deficient) received an 18 hour incubation in 30 μM etoposide with and without a pre-treatment with 20 μM flupirtine. As a control, cells were also left untreated. Cells were then stained with JC-1 fluorescent stain, which is a mitochondrial membrane potential-sensitive dye. When cells are alive, the mitochondrial potential is maintained and the mitochondria appear green. At the commitment point of apoptosis, proapoptotic agents like etopside cause a drop in mitochondrial membrane potential and the mitochondria appear yellow-red due to the formation of J-aggregates.
(§2) Cell counts were conducted for to determine the percentage of cells showing J-aggregates (TABLE 1).
(§3) The numbers of cells showing J-aggregates indicates the number of cells that are apoptosis-ready but are still viable.

[2] = tested on: cells derived from juvenile Batten disease (JNCL or CLN3 deficient); assay: JC-1 mitochondrial membrane potential assay of etoposide-induced apoptosis, JNCL cells; format: cell-based, human
Experimental: as §1, §2, §3

[3] = tested on: cells derived from infantile Batten disease (INCL or CLN1 deficient); assay: JC-1 mitochondrial membrane potential assay of etoposide-induced apoptosis, INCL cells; format: cell-based, human; conditions: for percentage of cells showing J-aggregates: two patient cell lines, JC-1 stain
Experimental: as §1, §2, §3

[4] = tested on: retinal pigment epithelial cells and neuronal cells in culture; conditions: cited from earlier work
[5] = adults and children, chronically for over 12 months; cited from earlier work
[6] = tested on: hNT neurons (human post-mitotic, fully-differentiated neurons); assay: Etoposide-induced apoptosis in differentiated hNT neurons; format: cell-based; conditions: pre-treatment with 10 μM flupirtine, 20 μM etoposide 18 hour (FIG. 5)
Experimental: Cells were visualized by fluorescent microscopy.
Finally, human post-mitotic neuronal cells were tested for thier response to flupirtine and etoposide-induced apoptosis. NT2 cells were treated with retinoic acid, then mitotic inhibitors for 6 weeks to become hNT neurons that were fully differentiated. Next, the hNT neurons received an 18 hour incubation in 20 μM etoposide with and without a pre-treatment with 10 μM flupirtine.

[7] = tested on: Costa Rican Batten disease-derived fibroblasts (CLN6 deficient); assay: Protection against etoposide-induced apoptosis, Costa Rican Batten disease cells; format: cell-based, human; conditions: pretreatment with flupirtine (FIG. 4)
Experimental: Graph represents number of living cells after treatments indicated.
Cells derived from Costa Rican Batten disease (CLN6 deficient) were also tested for their response to etoposide. The CLN6 gene remains uncharacterized, though linked to chromosome 15.

stroke in rats = conditions: rats pretreated with flupirtine; cited from earlier work
[8] = 30 μM etoposide alone, 18 hour incubation
[9] = pre-treatment with 20 μM flupirtine, then 30 μM etoposide 18 hour

Row | SMILES | yellow-red J-aggregates seen by fluorescent microscopy ([1]; etoposide alone (FIG. 3B)) | percentage of cells showing J-aggregates [1, 8] | yellow-red J-aggregates seen by fluorescent microscopy ([2]; etoposide alone (FIG. 3C)) | percentage of cells showing J-aggregates ([2]; two patient cell lines, 30 μM etoposide alone, 18 hour incubation, JC-1 stain) | yellow-red J-aggregates seen by fluorescent microscopy ([3]; etoposide alone (FIG. 3A)) | percentage of cells showing J-aggregates [3, 8] | effect on apoptosis [4] | tolerability in chronic use [5] | protection afforded by Flupirtine ([1]; J-aggregate counts, etoposide vs etoposide + flupirtine) | yellow-red J-aggregates seen by fluorescent microscopy ([1]; flupirtine pretreated, then etoposide (FIG. 3B)) | percentage of cells showing J-aggregates [1, 9] | yellow-red J-aggregates seen by fluorescent microscopy ([2]; flupirtine pretreated, then etoposide (FIG. 3C)) | effect on etoposide-induced apoptosis [6] | yellow-red J-aggregates seen by fluorescent microscopy ([3]; flupirtine pretreated, then etoposide (FIG. 3A)) | percentage of cells showing J-aggregates [3, 9] | protection from etoposide-induced apoptosis (number of living cells) [7] | area of ischemia induced by stroke (stroke in rats)
1 | COc1cc([C@@H]2c3cc4c(cc3[C@@H](O[C@@H]3O[C@@H]5CO[C@@H](C)O[C@H]5[C@H](O)[C@H]3O)[C@H]3COC(=O)[C@H]23)OCO4)cc(OC)c1O [Etoposide] | many yellow-red aggregates | 100% and 96% | many yellow-red aggregates | 58.4% and 64% | many yellow-red aggregates | 61% and 51% | – | – | – | – | – | – | – | – | – | – | –
2 | CCOC(=O)Nc1ccc(NCc2ccc(F)cc2)nc1N [Flupirtine, 2-amino-3-ethoxycarbonylamino-6-(p-fluorobenzylamino)-pyridine] | – | – | – | – | – | – | counteract apoptosis | without undue side effect or addiction | almost complete | no aggregates | 0% and 1.8% | no aggregates | completely blocked etoposide-induced apoptosis | no aggregates | 6.7% and 10.8% | protected from etoposide-induced apoptosis | reduce the area of ischemia

Reference: patent publication US6821995B1, “Method of treating batten disease” (priority 1999, dated 2004)
